Assay [1] concerns the target HDAC1 enzyme (recombinant GST-HDAC1) (Homo sapiens (Human), UniProt Q13547). In words: In vitro HDAC assay for determination of IC50 values (BIOMOL fluorescent-based HDAC activity assay). Format: biochemical. Conditions: Flur de lys substrate, 2 h room temperature, read-out: IC50 (HDAC 1). Put shortly:
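Recombinant human GST-HDAC1, baculovirus-expressed in SF9 cells and glutathione-purified, tested with a fluorogenic deacetylase substrate; Fluor de Lys developer added for 10 min. Fluorescence at 360 nm excitation/460 nm emission; IC50 fitted from a concentration series.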

The subject of another assay is Colo205 cells. Put plainly: Cell-based proliferation assay for determination of GI50 values (CyQUANT). The arrangement: species or system human. To be noted: Homo sapiens. Put shortly:
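Colo205 cells in RPMI 1640 with 5% FBS, seeded 5000/well and grown 24 h at 37 °C. Exposure to compound lasted 96 h, with growth read by CyQUANT. GI50 = concentration giving 50% growth inhibition, from dose-response curves.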

In assay [2] the test system is acetylated histone H3 in Colo205 cells. Put plainly: Histone acetylation assay (immuno-blotting with acetylated histone H3 antibody). Format: cell-based, human. Conditions: 10 μM, 24 h, western blot. The method, then:
Histone Acetylation Assay
A hallmark of histone deacetylase (HDAC) inhibition is the increase in the acetylation level of histones. Histone acetylation, including H3, H4 and H2A can be detected by immuno-blotting (western-blot). Colo205 cells, approximately 5×10^5 cells, were seeded in the previously described medium, cultivated for 24 h and subsequently treated with HDAC inhibitory agents and a positive control at 10 μM final concentration. After 24 h, cells were harvested and lysed according to the instruction from Sigma Mammalian Cell Lysis Kit. The protein concentration was quantified using BCA method (Sigma Pte Ltd). The protein lysate was separated using 4-12% bis-tris SDS-PAGE gel (Invitrogen Pte Ltd) and was transferred onto PVDF membrane (BioRad Pte Ltd). The membrane was probed using primary antibody specific for acetylated histone H3 (Upstate Pte Ltd). The detection antibody, goat anti rabbit antibody conjugated with HRP was used according to the manufacturing instruction (Pierce Pte Ltd). After removing the detection antibody from the membrane, an enhanced chemiluminescent substrate for detection of HRP (Pierce Pte Ltd) was added onto the membrane. After removing the substrate, the membrane was exposed to an X-ray film (Kodak) for 1 sec-20 mins. The X-ray film was developed using the X-ray film processor. The density of each band observed on the developed film could be qualitatively analysed using UVP Bioimaging software (UVP, Inc, Upland, Calif.). The values were then normalized against the density of actin in the corresponding samples to obtain the expression of the protein.
The results of immuno-blotting assay using acetylated histone H3 antibody are shown in Table 5 for representative compounds of this invention.

HDAC1 enzyme (recombinant GST-HDAC1), sequence (Q13547 whole entry): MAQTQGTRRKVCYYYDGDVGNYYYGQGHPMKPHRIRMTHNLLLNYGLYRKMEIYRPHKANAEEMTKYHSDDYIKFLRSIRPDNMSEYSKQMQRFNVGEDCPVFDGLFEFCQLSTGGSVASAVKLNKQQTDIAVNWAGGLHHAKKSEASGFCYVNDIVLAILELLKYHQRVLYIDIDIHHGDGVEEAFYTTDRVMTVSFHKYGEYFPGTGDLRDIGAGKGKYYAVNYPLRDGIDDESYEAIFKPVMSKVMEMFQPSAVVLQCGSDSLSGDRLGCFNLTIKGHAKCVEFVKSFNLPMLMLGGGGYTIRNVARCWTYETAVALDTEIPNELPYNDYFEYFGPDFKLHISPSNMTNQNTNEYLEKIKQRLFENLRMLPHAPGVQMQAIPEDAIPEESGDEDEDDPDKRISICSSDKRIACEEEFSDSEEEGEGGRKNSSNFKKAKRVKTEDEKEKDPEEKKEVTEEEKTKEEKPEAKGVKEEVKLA

On to `CCCCNCc1c(-c2ccccc2)nc2cc(/C=C/C(=O)NO)ccn12` [Compound 39, 3-(3-Butylaminomethyl-2-phenyl-imidazo[1,2-a]pyridin-7-yl)-N-hydroxy-acrylamide], for which, in assay [1], the IC50 turned out to be 160 nM. The same compound gave a GI50 in the assay on Colo205 cells (COLO 205, 96 h treatment) of 440 nM. Besides, the “Histone acetylation activities (Histone-3)” value in assay [2] is recorded as “active”.

On to `CCCN(C)Cc1c(-c2ccccc2)nc2cc(C=CC(=O)NO)ccn12` [Compound 40, N-Hydroxy-3-{3-[(methyl-propyl-amino)-methyl]-2-phenyl-imidazo[1,2-a]pyridin-7-yl}-acrylamide], for which the half-inhibitory concentration (IC50) in assay [1] is 240 nM. Moreover, the GI50 with Colo205 cells (COLO 205, 96 h treatment) was 790 nM. In assay [2], the “Histone acetylation activities (Histone-3)” value is reported as “active”.

In the case of `CC(C)(C)NCc1c(-c2ccccc2)nc2cc(/C=C/C(=O)NO)ccn12` [Compound 45, 3-[3-(tert-Butylamino-methyl)-2-phenyl-imidazo[1,2-a]pyridin-7-yl]-N-hydroxy-acrylamide], the half-inhibitory concentration (IC50) in assay [1] is 45 nM. In the assay on Colo205 cells (COLO 205, 96 h treatment), the GI50 was found to be 260 nM. In addition, the “Histone acetylation activities (Histone-3)” value in assay [2] is reported as “active”.

On to `CCCCNCc1c(C(C)(C)C)nc2cc(/C=C/C(=O)NO)ccn12` [Compound 49, 3-(2-tert-Butyl-3-butylaminomethyl-imidazo[1,2-a]pyridin-7-yl)-N-hydroxy-acrylamide], for which the half-inhibitory concentration (IC50) in assay [1] was determined as 160 nM. In the assay on Colo205 cells (COLO 205, 96 h treatment), this compound yielded a GI50 of 590 nM. For the same compound, in assay [2], the “Histone acetylation activities (Histone-3)” value is listed as “active”.

`O=C(/C=C/c1ccn2c(CN3CCCC3)c(-c3ccccc3)nc2c1)NO` [Compound 60, N-Hydroxy-3-(2-phenyl-3-pyrrolidin-1-ylmethyl-imidazo[1,2-a]pyridin-7-yl)-acrylamide]: the concentration for half-maximal inhibition (IC50) in assay [1] is 84 nM. Moreover, it took 480 nM to inhibit growth in the assay on Colo205 cells (COLO 205, 96 h treatment) by half (GI50). Besides, the “Histone acetylation activities (Histone-3)” value in assay [2] is reported as “active”.

Consider `CCCCNCc1c(-c2ccc(F)cc2)nc2cc(/C=C/C(=O)NO)ccn12` [Compound 63, 3-[3-Butylaminomethyl-2-(4-fluoro-phenyl)-imidazo[1,2-a]pyridin-7-yl]-N-hydroxy-acrylamide], for which, in assay [1], the IC50 was determined as 63 nM. In addition, the GI50 in the assay on Colo205 cells (COLO 205, 96 h treatment) came out at 540 nM. In addition, the “Histone acetylation activities (Histone-3)” value in assay [2] is given as “active”.

In the case of `CC(C)(C)NCc1c(-c2ccc(F)cc2)nc2cc(/C=C/C(=O)NO)ccn12` [Compound 64, 3-[3-(tert-Butylamino-methyl)-2-(4-fluoro-phenyl)-imidazo[1,2-a]pyridin-7-yl]-N-hydroxy-acrylamide], the concentration for half-maximal inhibition (IC50) in assay [1] amounted to 51 nM. In addition, the 50% growth inhibitory concentration (GI50) in the assay on Colo205 cells (COLO 205, 96 h treatment) is 270 nM. The “Histone acetylation activities (Histone-3)” value in assay [2] is “active”.

For the compound `CCCCCc1nc2cc(/C=C/C(=O)NO)ccn2c1CN(CC)CCC(C)(C)C` [Compound 131, 3-(3-{[(3,3-Dimethyl-butyl)-ethyl-amino]-methyl}-2-pentyl-imidazo[1,2a]pyridin-7-yl)-N-hydroxy-acrylamide], in assay [1], the concentration for half-maximal inhibition (IC50) amounted to 30 nM. The same compound yielded a GI50 with Colo205 cells (COLO 205, 96 h treatment) of 150 nM.

Take `CCCCN(CC)Cc1c(CCC)nc2cc(/C=C/C(=O)NO)ccn12` [Compound 132, 3-{3-[(Butyl-ethylamino)-methyl]-2-propyl-imidazo[1,2-a]pyridin-7-yl}-N-hydroxy-acrylamide]: in assay [1], the IC50 was found to be 40 nM. It took 160 nM to inhibit growth with Colo205 cells (COLO 205, 96 h treatment) by half (GI50).

For the compound `CC(C)Cc1nc2cc(/C=C/C(=O)NO)ccn2c1CNC(C)(C)C` [Compound 133, 3-[3-(tert-Butylamino-methyl)-2-isobutyl-imidazo[1,2-a]pyridin-7-yl]-N-hydroxy-acrylamide], the IC50 in assay [1] was determined as 50 nM. In the assay with Colo205 cells (COLO 205, 96 h treatment), this compound had a GI50 of 210 nM.

Consider `CCCCN(CC)Cc1c(CC(C)C)nc2cc(/C=C/C(=O)NO)ccn12` [Compound 134, 3-{3-[(Butyl-ethyl-amino)-methyl]-2-isobutyl-imidazo[1,2-a]pyridin-7-yl}-N-hydroxy-acrylamide], for which, in assay [1], the half-inhibitory concentration (IC50) is 40 nM. This compound also registered a GI50 with Colo205 cells (COLO 205, 96 h, 96 h treatment) of 150 nM.

Take `CCc1nc2cc(/C=C/C(=O)NO)ccn2c1CNC(C)(C)C` [Compound 137, 3-[3-(tert-Butylamino-methyl)-2-ethyl-imidazo[1,2-a]pyridin-7-yl]-N-hydroxy-acrylamide]: the IC50 in assay [1] worked out at 30 nM. For the same compound, in the assay on Colo205 cells (COLO 205, 96 h treatment), the GI50 came out at 260 nM.

Consider `CCCCN(CC)Cc1c(CC)nc2cc(/C=C/C(=O)NO)ccn12` [Compound 138, 3-{3-[(Butyl-ethyl-amino)-methyl]-2-ethyl-imidazo[1,2-a]pyridin-7-yl}-N-hydroxy-acrylamide], for which the IC50 in assay [1] came to 50 nM. This compound also gave a GI50 in the assay with Colo205 cells (COLO 205, 96 h treatment) of 180 nM.

Take `CCc1nc2cc(/C=C/C(=O)NO)ccn2c1CN(CC)CCC(C)C` [Compound 139, 3-(2-Ethyl-3-{[ethyl-(3-methyl-butyl)-amino]-methyl}-imidazo[1,2-a]pyridin-7-yl)-N-hydroxy-acrylamide]: the concentration for half-maximal inhibition (IC50) in assay [1] was determined as 20 nM. Halving of growth in the assay with Colo205 cells (COLO 205, 96 h treatment) (GI50) required 100 nM.

As to `CC(C)CCc1nc2cc(/C=C/C(=O)NO)ccn2c1CNC(C)(C)C` [Compound 140, 3-[3-(tert-Butylamino-methyl)-2-(3-methyl-butyl)-imidazo[1,2-a]pyridin-7-yl]-N-hydroxy-acrylamide], the half-inhibitory concentration (IC50) in assay [1] was 20 nM. Further, the 50% growth inhibitory concentration (GI50) in the assay on Colo205 cells (COLO 205, 96 h treatment) turned out to be 100 nM.

In the case of `CCCCN(CC)Cc1c(CCC(C)C)nc2cc(/C=C/C(=O)NO)ccn12` [Compound 141, 3-[3-[(Butyl-ethyl-amino)-methyl]-2-(3-methyl-butyl)-imidazo[1,2a]pyridin-7-yl]-N-hydroxy-acrylamide], in assay [1], the concentration for half-maximal inhibition (IC50) was determined as 40 nM. In the assay with Colo205 cells (COLO 205, 96 h treatment), this compound returned a GI50 of 160 nM.

Consider `CCN(CCC(C)(C)C)Cc1c(CCC(C)C)nc2cc(/C=C/C(=O)NO)ccn12` [Compound 143, 3-[3-{[(3,3-Dimethyl-butyl)-ethyl-amino]-methyl}-2-(3-methyl-butyl)-imidazo[1,2-a]pyridin-7-yl]-N-hydroxy-acrylamide], for which, in assay [1], the half-maximal inhibitory concentration (IC50) was determined as 40 nM. The same compound showed a concentration for 50% growth inhibition (GI50) with Colo205 cells (COLO 205, 96 h treatment) of 130 nM.

(Values after patent US8648092B2, “Imidazo[1,2-a]pyridine derivatives: preparation and pharmaceutical applications” (MEI Pharma, priority 2005, dated 2014).)
